In PubChem BioAssay (NCI):
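At the GI50, growth is halved. TGI is the concentration that stops growth completely.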

Legend:
Assay in all cases: NCI tumour cell line growth inhibition, 384-well format
[1] = tested on: 786-0 renal
[2] = tested on: A498 renal
[3] = tested on: ACHN renal
[4] = tested on: BT-549 breast
[5] = tested on: CAKI-1 renal
[6] = tested on: DU-145 prostate
[7] = tested on: EKVX NSCLC
[8] = tested on: HCC-2998 colon
[9] = tested on: HCT-116 colon
[10] = tested on: HCT-15 colon
[11] = tested on: HL-60(TB) leukemia
[12] = tested on: HOP-62 NSCLC
[13] = tested on: HOP-92 NSCLC
[14] = tested on: HS 578T breast
[15] = tested on: HT29 colon
[16] = tested on: IGROV1 ovarian
[17] = tested on: K-562 leukemia
[18] = tested on: KM12 colon
[19] = tested on: LOX IMVI melanoma
[20] = tested on: M14 melanoma
[21] = tested on: MALME-3M melanoma
[22] = tested on: MCF7 breast
[23] = tested on: MDA-MB-231 breast
[24] = tested on: MDA-MB-435 melanoma
[25] = tested on: MDA-MB-468 breast
[26] = tested on: MOLT-4 leukemia
[27] = tested on: NCI-H226 lung
[28] = tested on: NCI-H23 lung
[29] = tested on: NCI-H322M lung
[30] = tested on: NCI-H460 NSCLC
[31] = tested on: NCI-H522 lung
[32] = tested on: NCI/ADR-RES ovarian
[33] = tested on: OVCAR-4 ovarian
[34] = tested on: OVCAR-5 ovarian
[35] = tested on: OVCAR-8 ovarian
[36] = tested on: PC-3 prostate
[37] = tested on: RPMI-8226 leukemia
[38] = tested on: RXF 393 renal
[39] = tested on: SF-268 CNS
[40] = tested on: SF-295 CNS
[41] = tested on: SF-539 CNS
[42] = tested on: SK-MEL-28 melanoma
[43] = tested on: SK-MEL-5 melanoma
[44] = tested on: SK-OV-3 ovarian
[45] = tested on: SN12C renal
[46] = tested on: SNB-19 CNS
[47] = tested on: SNB-75 CNS
[48] = tested on: SW-620 colon
[49] = tested on: T-47D breast
[50] = tested on: TK-10 renal
[51] = tested on: U251 glioblastoma
[52] = tested on: UACC-257 melanoma
[53] = tested on: UACC-62 melanoma
[54] = tested on: UO-31 renal

Question: How did the GI50 [1] turn out when `CCn1cc(-c2ccnc3[nH]c(-c4cccc(CN(C)C)c4)cc23)c(-c2ccc(NC(=O)N(C)C)cc2)n1` was run?
Answer: 1450 nM

Question: What about the TGI [1] of the same molecule?
Answer: 5230 nM

Question: What about the GI50 [2] of the same molecule?
Answer: 1180 nM

Question: And the TGI [2]?
Answer: 9520 nM

Question: And the GI50 [3]?
Answer: 2230 nM

Question: And the TGI [3]?
Answer: 10700 nM

Question: And the GI50 [4]?
Answer: 293 nM

Question: And the TGI [4]?
Answer: 1770 nM

Question: What about the GI50 [5] of the same molecule?
Answer: 246 nM

Question: And the TGI [5]?
Answer: 1940 nM

Question: And the GI50 [6]?
Answer: 2710 nM

Question: And the TGI [6]?
Answer: 14600 nM

Question: And the GI50 [7]?
Answer: 1110 nM

Question: What about the TGI [7] of the same molecule?
Answer: 4860 nM

Question: What about the GI50 [8] of the same molecule?
Answer: 1690 nM

Question: And the TGI [8]?
Answer: 4200 nM

Question: What about the GI50 [9] of the same molecule?
Answer: 158 nM

Question: What about the TGI [9] of the same molecule?
Answer: 1940 nM

Question: And the GI50 [10]?
Answer: 1940 nM

Question: And the TGI [10]?
Answer: 9960 nM

Question: And the GI50 [11]?
Answer: < 10 nM

Question: And the TGI [11]?
Answer: 1370 nM

Question: And the GI50 [12]?
Answer: 516 nM

Question: And the TGI [12]?
Answer: 7570 nM

Question: What about the GI50 [13] of the same molecule?
Answer: 449 nM

Question: What about the TGI [13] of the same molecule?
Answer: 2720 nM

Question: And the GI50 [14]?
Answer: 1250 nM

Question: What about the TGI [14] of the same molecule?
Answer: 3170 nM

Question: What about the GI50 [15] of the same molecule?
Answer: 1000 nM

Question: What about the TGI [15] of the same molecule?
Answer: 2310 nM

Question: And the GI50 [16]?
Answer: 1530 nM

Question: What about the TGI [16] of the same molecule?
Answer: 10400 nM

Question: What about the GI50 [17] of the same molecule?
Answer: 1090 nM

Question: And the TGI [17]?
Answer: 2420 nM

Question: And the GI50 [18]?
Answer: 543 nM

Question: And the TGI [18]?
Answer: 2980 nM

Question: What about the GI50 [19] of the same molecule?
Answer: 422 nM

Question: And the TGI [19]?
Answer: 1920 nM

Question: What about the GI50 [20] of the same molecule?
Answer: 1270 nM

Question: What about the TGI [20] of the same molecule?
Answer: 3940 nM

Question: What about the GI50 [21] of the same molecule?
Answer: 1510 nM

Question: What about the TGI [21] of the same molecule?
Answer: 3340 nM

Question: And the GI50 [22]?
Answer: 843 nM

Question: And the TGI [22]?
Answer: 7150 nM

Question: And the GI50 [23]?
Answer: 1320 nM

Question: What about the TGI [23] of the same molecule?
Answer: 7090 nM

Question: And the GI50 [24]?
Answer: 1680 nM

Question: What about the TGI [24] of the same molecule?
Answer: 5340 nM

Question: What about the GI50 [25] of the same molecule?
Answer: < 10 nM

Question: What about the GI50 [26] of the same molecule?
Answer: < 10 nM

Question: And the GI50 [27]?
Answer: 186 nM

Question: And the TGI [27]?
Answer: 1730 nM

Question: What about the GI50 [28] of the same molecule?
Answer: 403 nM

Question: And the TGI [28]?
Answer: 2290 nM

Question: What about the GI50 [29] of the same molecule?
Answer: 3810 nM

Question: What about the TGI [29] of the same molecule?
Answer: 15600 nM

Question: And the GI50 [30]?
Answer: < 10 nM

Question: And the TGI [30]?
Answer: 1340 nM

Question: What about the GI50 [31] of the same molecule?
Answer: 115 nM

Question: And the TGI [31]?
Answer: 1540 nM

Question: And the GI50 [32]?
Answer: 17600 nM

Question: What about the TGI [32] of the same molecule?
Answer: 42400 nM

Question: What about the GI50 [33] of the same molecule?
Answer: 2260 nM

Question: What about the TGI [33] of the same molecule?
Answer: 13900 nM

Question: What about the GI50 [34] of the same molecule?
Answer: 1680 nM

Question: And the TGI [34]?
Answer: 4910 nM

Question: And the GI50 [35]?
Answer: 1620 nM

Question: And the TGI [35]?
Answer: 7510 nM

Question: What about the GI50 [36] of the same molecule?
Answer: 1680 nM

Question: And the TGI [36]?
Answer: 7380 nM

Question: What about the GI50 [37] of the same molecule?
Answer: < 10 nM

Question: What about the TGI [37] of the same molecule?
Answer: 1430 nM

Question: What about the GI50 [38] of the same molecule?
Answer: 45.4 nM

Question: What about the TGI [38] of the same molecule?
Answer: 2740 nM

Question: What about the GI50 [39] of the same molecule?
Answer: < 10 nM

Question: What about the TGI [39] of the same molecule?
Answer: 192 nM

Question: What about the GI50 [40] of the same molecule?
Answer: 1910 nM

Question: What about the TGI [40] of the same molecule?
Answer: 10000 nM

Question: And the GI50 [41]?
Answer: 327 nM

Question: And the TGI [41]?
Answer: 2040 nM

Question: And the GI50 [42]?
Answer: 1700 nM

Question: And the TGI [42]?
Answer: 4760 nM

Question: What about the GI50 [43] of the same molecule?
Answer: 1340 nM

Question: And the TGI [43]?
Answer: 2890 nM

Question: And the GI50 [44]?
Answer: 1010 nM

Question: What about the TGI [44] of the same molecule?
Answer: 3410 nM

Question: And the GI50 [45]?
Answer: 344 nM

Question: What about the TGI [45] of the same molecule?
Answer: 3800 nM

Question: What about the GI50 [46] of the same molecule?
Answer: 2410 nM

Question: What about the TGI [46] of the same molecule?
Answer: 14200 nM

Question: And the GI50 [47]?
Answer: 483 nM

Question: And the TGI [47]?
Answer: 2220 nM

Question: What about the GI50 [48] of the same molecule?
Answer: 750 nM

Question: And the TGI [48]?
Answer: 2350 nM

Question: What about the GI50 [49] of the same molecule?
Answer: 1420 nM

Question: And the TGI [49]?
Answer: 9450 nM

Question: And the GI50 [50]?
Answer: 2610 nM

Question: What about the TGI [50] of the same molecule?
Answer: 11600 nM

Question: What about the GI50 [51] of the same molecule?
Answer: 1350 nM

Question: What about the TGI [51] of the same molecule?
Answer: 2830 nM

Question: What about the GI50 [52] of the same molecule?
Answer: 1360 nM

Question: What about the TGI [52] of the same molecule?
Answer: 2710 nM

Question: What about the GI50 [53] of the same molecule?
Answer: 755 nM

Question: And the TGI [53]?
Answer: 4340 nM

Question: And the GI50 [54]?
Answer: 2670 nM

Question: And the TGI [54]?
Answer: 12000 nM
